Source: ChEMBL document CHEMBL5321264, “Proteomic Changes in Methicillin-Resistant Staphylococcus aureus Exposed to Cannabinoids” (2023)
≈ marks a conversion by molar mass, not a printed value. Calls of active or inactive are those of the source. The calls are words filed in the database; no cut-off is given here.

How the values were obtained:
Staphylococcus aureus [1] = assay: Bactericidal activity against methicillin-resistant Staphylococcus aureus CC398 assessed as reduction in bacterial viability measured after 15 hrs by real-time microscopic analysis; type: functional
Staphylococcus aureus [2] = assay: Antibacterial activity against methicillin-resistant Staphylococcus aureus CC398 assessed as reduction in bacterial growth measured after 4 hrs by real-time microscopic analysis; type: functional
[3] = Selectivity ratio of MBC for bactericidal activity against methicillin-resistant Staphylococcus aureus CC398 to MIC for antibacterial activity against methicillin-resistant Staphylococcus aureus CC398; type: functional
Staphylococcus aureus [4] = assay: Potentiation of methicillin-induced antibacterial activity against methicillin-resistant Staphylococcus aureus CC398 assessed as ratio of methicillin MBC to MIC at 2.5 microg/ml; type: functional; conditions: dose 2.5 µg/ml
Staphylococcus aureus [5] = assay: Potentiation of methicillin-induced antibacterial activity against methicillin-resistant Staphylococcus aureus CC398 assessed as methicillin MIC at 2.5 microg/ml; type: functional; conditions: dose 2.5 µg/ml
Staphylococcus aureus [6] = assay: Potentiation of methicillin-induced antibacterial activity against methicillin-resistant Staphylococcus aureus CC398 assessed as methicillin MBC at 2.5 microg/ml; type: functional; conditions: dose 2.5 µg/ml
Staphylococcus aureus [7] = assay: Potentiation of methicillin-induced antibacterial activity against methicillin-resistant Staphylococcus aureus CC398 assessed as reduction in methicillin MIC at 2.5 microg/ml relative to control; type: functional; parameters: scale not given: the % may be the effect or the level left; conditions: dose 2.5 µg/ml
Staphylococcus aureus [8] = assay: Antibacterial activity against methicillin-resistant Staphylococcus aureus CC398 assessed as increase in cell density at 1.25 microg/ml by real-time microscopic analysis relative to control; type: functional; conditions: dose 1.25 µg/ml; time 15 hrs
Staphylococcus aureus [9] = assay: Upregulation of ATP synthase subunit beta expression in methicillin-resistant Staphylococcus aureus CC398 in the presence of methicillin by gene ontology analysis; type: functional
Staphylococcus aureus [10] = assay: Upregulation of GTP-binding protein typeA expression in methicillin-resistant Staphylococcus aureus CC398 in the presence of methicillin by gene ontology analysis; type: functional
Staphylococcus aureus [11] = assay: Upregulation of proline-tRNA ligase expression in methicillin-resistant Staphylococcus aureus CC398 in the presence of methicillin by gene ontology analysis; type: functional
Staphylococcus aureus [12] = assay: Upregulation of elongation factor P expression in methicillin-resistant Staphylococcus aureus CC398 in the presence of methicillin by gene ontology analysis; type: functional
Staphylococcus aureus [13] = assay: Downregulation of isocitrate dehydrogenase expression in methicillin-resistant Staphylococcus aureus CC398 in the presence of methicillin by gene ontology analysis; type: functional
Staphylococcus aureus [14] = assay: Downregulation of succinate-CoA synthase expression in methicillin-resistant Staphylococcus aureus CC398 in the presence of methicillin by gene ontology analysis; type: functional
Staphylococcus aureus [15] = assay: Downregulation of phosphoglycerate kinase expression in methicillin-resistant Staphylococcus aureus CC398 in the presence of methicillin by gene ontology analysis; type: functional
Staphylococcus aureus [16] = assay: Antibacterial activity against methicillin-resistant Staphylococcus aureus CC398 assessed as inhibition of bacterial growth at higher concentration incubated for 15 hrs by real-time microscopic analysis; type: functional, organism-based
Staphylococcus aureus [17] = assay: Antibacterial activity against methicillin-resistant Staphylococcus aureus CC398 assessed as inhibition of bacterial growth at lower concentration incubated for 15 hrs by real-time microscopic analysis; type: functional, organism-based
Staphylococcus aureus [18] = assay: Upregulation of peptide chain release factor 1 expression in methicillin-resistant Staphylococcus aureus CC398 in the presence of methicillin; type: functional
Staphylococcus aureus [19] = assay: Upregulation of ATP synthase subunit B expression in methicillin-resistant Staphylococcus aureus CC398 in the presence of methicillin by gene ontology analysis; type: functional
Staphylococcus aureus [20] = assay: Upregulation of ATP synthase subunit alpha expression in methicillin-resistant Staphylococcus aureus CC398 in the presence of methicillin by gene ontology analysis; type: functional
Staphylococcus aureus [21] = assay: Downregulation of superoxide dismutase expression in methicillin-resistant Staphylococcus aureus CC398 in the presence of methicillin by gene ontology analysis; type: functional
Staphylococcus aureus [22] = assay: Upregulation of enolase expression in methicillin-resistant Staphylococcus aureus CC398 by gene ontology analysis; type: functional
Staphylococcus aureus [23] = assay: Downregulation of catalase expression in methicillin-resistant Staphylococcus aureus CC398 in the presence of methicillin by gene ontology analysis; type: functional
Staphylococcus aureus [24] = assay: Antibacterial activity against methicillin-resistant Staphylococcus aureus CC398 assessed as increase in cell density at 2.5 microg/ml measured after 15 hrs by real-time microscopic analysis relative to control; type: functional; conditions: dose 2.5 µg/ml
Staphylococcus aureus [25] = assay: Upregulation of PBP2 protein expression in methicilin-resistant Staphylococcus aureus CC398 in the presence of methicillin by gene ontology analysis; type: functional
Staphylococcus aureus [26] = assay: Upregulation of GrpE protein expression in methicillin-resistant Staphylococcus aureus CC398 in the presence of methicillin by gene ontology analysis; type: functional
Staphylococcus aureus [27] = assay: Downregulation of aminoacyl-tRNA-synthetase expression in methicillin-resistant Staphylococcus aureus CC398 in the presence of methicillin by gene ontology analysis; type: functional
Staphylococcus aureus [28] = assay: Downregulation of Threonine synthase expression in methicillin-resistant Staphylococcus aureus CC398 in the presence of methicillin by gene ontology analysis; type: functional
Staphylococcus aureus [29] = assay: Downregulation of cysteine synthase expression in methicillin-resistant Staphylococcus aureus CC398 in the presence of methicillin by gene ontology analysis; type: functional
Staphylococcus aureus [30] = assay: Downregulation of serine hydroxy methyltransferase expression in methicillin-resistant Staphylococcus aureus CC398 in the presence of methicillin by gene ontology analysis; type: functional
Staphylococcus aureus [31] = assay: Downregulation of Carbamoyl-phosphate synthase small chain expression in methicillin-resistant Staphylococcus aureus CC398 in the presence of methicillin by gene ontology analysis; type: functional
Staphylococcus aureus [32] = assay: Upregulation of ATP-dependent protease ATPase subunit […] expression in methicillin-resistant Staphylococcus aureus CC398 in the presence of methicillin by gene ontology analysis; type: functional
Staphylococcus aureus [33] = assay: Downregulation of pyruvate kinase expression in methicillin-resistant Staphylococcus aureus CC398 in the presence of methicillin by gene ontology analysis; type: functional
Staphylococcus aureus [34] = assay: Antibacterial activity against methicillin-resistant Staphylococcus aureus CC398 assessed as increase in cell density at 5 microg/ml measured after 15 hrs by real-time microscopic analysis relative to control; type: functional; conditions: dose 5 µg/ml
Staphylococcus aureus [35] = assay: Downregulation of fructose-1,6-bisphosphate aldolase expression in methicillin-resistant Staphylococcus aureus CC398 in the presence of methicillin by gene ontology analysis; type: functional
Staphylococcus aureus [36] = assay: Downregulation of 2,3-bisphosphoglycerate-independent phosphoglycerate mutase expression in methicillin-resistant Staphylococcus aureus CC398 in the presence of methicillin by gene ontology analysis; type: functional
Staphylococcus aureus [37] = assay: Downregulation of elongation factor Tu expression in methicillin-resistant Staphylococcus aureus CC398 in the presence of methicillin by gene ontology analysis; type: functional
Staphylococcus aureus [38] = assay: Downregulation of elongation factor G expression in methicillin-resistant Staphylococcus aureus CC398 in the presence of methicillin by gene ontology analysis; type: functional
Staphylococcus aureus [39] = assay: Downregulation of arginine-tRNA-synthetase expression in methicillin-resistant Staphylococcus aureus CC398 in the presence of methicillin by gene ontology analysis; type: functional
Staphylococcus aureus [40] = assay: Potentiation of methicillin-induced antibacterial activity against methicillin-resistant Staphylococcus aureus CC398 assessed as ratio of methicillin MBC to MIC at 7.5 microg/ml; type: functional; conditions: dose 7.5 µg/ml
Staphylococcus aureus [41] = assay: Potentiation of methicillin-induced antibacterial activity against methicillin-resistant Staphylococcus aureus CC398 assessed as methicillin MIC at 7.5 microg/ml; type: functional; conditions: dose 7.5 µg/ml
Staphylococcus aureus [42] = assay: Potentiation of methicillin-induced antibacterial activity against methicillin-resistant Staphylococcus aureus CC398 assessed as methicillin MBC at 7.5 microg/ml; type: functional; conditions: dose 7.5 µg/ml
Staphylococcus aureus [43] = assay: Upregulation of DNA-directed RNA polymerase subunit omega expression in Staphylococcus aureus CC398 in the presence of methicillin by gene ontology analysis; type: functional
Staphylococcus aureus [44] = assay: Upregulation of SepF expression in Staphylococcus aureus CC398 in the presence of methicillin by gene ontology analysis; type: functional
Staphylococcus aureus [45] = assay: Downregulation of isoleucine-tRNA-synthetase expression in methicillin-resistant Staphylococcus aureus CC398 in the presence of methicillin by gene ontology analysis; type: functional
Staphylococcus aureus [46] = assay: Downregulation of valine-tRNA-synthetase expression in methicillin-resistant Staphylococcus aureus CC398 in the presence of methicillin by gene ontology analysis; type: functional
Staphylococcus aureus [47] = assay: Antibacterial activity against methicillin-resistant Staphylococcus aureus CC398 assessed as increase in cell density at 1 microg/ml measured after 15 hrs by real-time microscopic analysis relative to control; type: functional; conditions: dose 1 µg/ml
Staphylococcus aureus [48] = assay: Antibacterial activity against methicillin-resistant Staphylococcus aureus CC398 assessed as increase in cell growth rate by measuring maximal response at 1 microg/ml after 15 hrs by real-time microscopic analysis relative to control; type: functional; conditions: dose 1 µg/ml
Staphylococcus aureus [49] = assay: Upregulation of ATP synthase subunit beta expression in Staphylococcus aureus CC398 by gene ontology analysis; type: functional
Staphylococcus aureus [50] = assay: Upregulation of ATP synthase subunit b expression in Staphylococcus aureus CC398 by gene ontology analysis; type: functional
Staphylococcus aureus [51] = assay: Upregulation of ATP synthase subunit alpha expression in Staphylococcus aureus CC398 by gene ontology analysis; type: functional
Staphylococcus aureus [52] = assay: Upregulation of PBP2 protein expression in Staphylococcus aureus CC398 by gene ontology analysis; type: functional

Compound | MBC (Staphylococcus aureus [1]) [µg/mL] | MIC (Staphylococcus aureus [2]) [µg/mL] | Ratio [3] | Ratio (Staphylococcus aureus [4]) | MBC (Staphylococcus aureus [5]) [µg/mL] | MIC (Staphylococcus aureus [6]) [µg/mL] | Activity (Staphylococcus aureus [7]) [%] | Activity (Staphylococcus aureus [9]) | Activity (Staphylococcus aureus [15]) | Activity (Staphylococcus aureus [16]) | Activity (Staphylococcus aureus [17]) | Activity (Staphylococcus aureus [19]) | Activity (Staphylococcus aureus [20]) | Activity (Staphylococcus aureus [21]) | Activity (Staphylococcus aureus [22]) | Activity (Staphylococcus aureus [23]) | Activity (Staphylococcus aureus [26]) | Activity (Staphylococcus aureus [33]) | other results
C=C(C)[C@@H]1CCC(C)=C[C@H]1c1c(O)cc(CCCCC)cc1O [CANNABIDIOL] | 5 (≈ 15.9 µM) | 2.5 (≈ 7.95 µM) | 2 | 16 | 1 | 0.063 | 87.5 | Active | Active | Active | inactive | Active | Active | Active | Active | Active |  |  | Activity (Staphylococcus aureus [8]): 19%; Activity (Staphylococcus aureus [10]): Active; Activity (Staphylococcus aureus [11]): Active; Activity (Staphylococcus aureus [12]): Active; Activity (Staphylococcus aureus [13]): Active; Activity (Staphylococcus aureus [14]): Active; Activity (Staphylococcus aureus [18]): Active
CCCCCc1cc(O)c2c(c1)OC(C)(C)c1ccc(C)cc1-2 [CANNABINOL] | 7.5 (≈ 24.2 µM) | 2.5 (≈ 8.05 µM) | 3 | 16 | 1 | 0.063 | 87.5 | Active | Active | Active | inactive | Active | Active | Active | Active | Active | Active | Active | Activity (Staphylococcus aureus [24]): 29%; Activity (Staphylococcus aureus [25]): Active; Activity (Staphylococcus aureus [27]): Active; Activity (Staphylococcus aureus [28]): Active; Activity (Staphylococcus aureus [29]): Active; Activity (Staphylococcus aureus [30]): Active; Activity (Staphylococcus aureus [31]): Active; Activity (Staphylococcus aureus [32]): Active
CCCCCc1cc(O)c2c(c1)OC(C)(C)[C@@H]1CCC(C)=C[C@@H]21 [DRONABINOL] | 20 (≈ 63.6 µM) | 7.5 (≈ 23.8 µM) | 2.67 |  |  |  | 93.8 | Active | Active | Active | inactive | Active | Active | Active | Active |  | Active | Active | Activity (Staphylococcus aureus [34]): 45%; Activity (Staphylococcus aureus [35]): Active; Activity (Staphylococcus aureus [36]): Active; Activity (Staphylococcus aureus [37]): Active; Activity (Staphylococcus aureus [38]): Active; Activity (Staphylococcus aureus [39]): Active; Ratio (Staphylococcus aureus [40]): 8; MIC (Staphylococcus aureus [41]): 0.063 µg/mL; MBC (Staphylococcus aureus [42]): 0.5 µg/mL; Activity (Staphylococcus aureus [43]): Active; Activity (Staphylococcus aureus [44]): Active; Activity (Staphylococcus aureus [45]): Active; Activity (Staphylococcus aureus [46]): Active
COc1cccc(OC)c1C(=O)N[C@@H]1C(=O)N2[C@@H]1SC(C)(C)[C@@H]2C(=O)O [METHICILLIN] | 8 (≈ 21 µM) | 4 (≈ 10.5 µM) |  |  |  |  |  |  |  |  |  |  |  |  |  |  |  |  | Activity (Staphylococcus aureus [47]): 43%; Activity (Staphylococcus aureus [48]): 143%; Activity (Staphylococcus aureus [49]): Active; Activity (Staphylococcus aureus [50]): Active; Activity (Staphylococcus aureus [51]): Active; Activity (Staphylococcus aureus [52]): Active
